Measured values as given in patent US12043602B2, “Fendiline derivatives” (The Board of Regents of the University of Texas System, priority 2019, dated 2024).
Several values for one entry are separate records, joined by “and”; a condition that tells them apart may be missing. Equal entries are not always repeated. Where two headings read alike, the source gives them in different places.

Assays:
[1] = test system: MPanc96 (Mut) pancreatic tumor cells; experiment: CyQUANT proliferation assay; assay type: cell-based; design: key to IC50 proliferation MPanc96 (Mut): NE—Not efficacious; conditions: 72 h
Description: (§1) Madine Darby Canine Kidney epithelial cells (MDCK) stably co-expressing mGFP-tagged full length oncogenic mutant K-Ras (GFP—K-RASG12V) or mGFP-LactC2 (peptide probe for phosphatidylserine) and mCherry-tagged to the amino acids 179-189 of H-RasC181S, C184S (mCherry-CAAX, localizes primarily to endomembranes) were grown in DMEM-high glucose/sodium pyruvate/10% FBS. The medium was supplemented with 1× Penicillin/Streptomycin for fluorescence microscopy assays, to avoid any microbial contamination from the test compounds added. KLE and Hec50 cells were maintained in DMEM-F-12 medium supplemented with 10% FBS. Hec-1A and Hec-1B cells were grown in McCoy's 5a medium supplemented with 10% FBS. ESS-1 cells were grown in RPMI 1640 medium supplemented with 20% FBS. MPanc96 cells were grown in DMEM supplemented with 10% FBS, MiaPaCa-2 cells in DMEM supplemented with 10% FBS and 2.5% horse serum and all other cell lines were grown in RPMI 1640 supplemented with 10% FBS. All cancer cell media were supplemented with ×Penicillin/Streptomycin. All cell lines were grown at 37° C. with 5% CO2.
(§2) Cells were seeded in 96-well plates. After 24 h, fresh growth medium supplemented with 0.1% vehicle (DMSO), or various concentrations of drugs was added and cells were grown for 72 h. Cell numbers were quantified using the CyQUANT® Cell Proliferation Assay Kit (Molecular Probes, Life Technologies), according to the manufacturer's protocol. Fluorescence measurement was used as a measure of live cell number.

[2] = test system: MDCK cells co-expressing GFP-K-RASG12V and mCherry-CAAX; experiment: Cytotoxicity in mislocalization screen (death of all cells in well); conditions: drug caused death of all cells in well at 30 μM
mGFP-K-RASG12V = mGFP-K-RASG12V (Homo sapiens (Human), UniProt P01116, G12V); experiment: K-Ras mislocalization assay (confocal microscopy, Manders coefficient); assay type: cell-based; design: key to Emax: Manders coefficient: fraction of mCherry-CAAX co-localizing with GFP-K-Ras; conditions: for IC50: 48 h treatment, read-out: IC50 (μM), KRASG12V mislocalization; for Emax: maximal effect, Manders coefficient
In short: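 MDCK cells stably co-expressing mGFP-K-RASG12V and mCherry-CAAX (endomembrane marker) treated with compound or 0.1% DMSO for 48 h, fixed in 4% paraformaldehyde, imaged by confocal microscopy. Mislocalization quantified as the fraction of mCherry-CAAX co-localizing with mGFP-K-RASG12V (Manders coefficient) after 8-bit thresholding.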

[3] = test system: MOH (Mut) pancreatic tumor cells; experiment: CyQUANT proliferation assay; assay type: cell-based; design: key to IC50 proliferation MOH (Mut): NE—Not efficacious; conditions: 72 h
Description: as §1, §2

[4] = test system: MiaPaCa-2 (Mut) pancreatic tumor cells; experiment: CyQUANT proliferation assay; assay type: cell-based; design: key to IC50 proliferation MiaPaCa-2 (Mut): NE—Not efficacious; conditions: 72 h
Description: as §1, §2

[5] = batch 4 compounds, MDCK cells, 48 h, title calls it IC50, read-out: EC50

SMILES | Cytotoxic at 30 μM [2] | IC50 (mGFP-K-RASG12V; MDCK cells) | Emax (mGFP-K-RASG12V; MDCK cells, 48 h) | further results
COc1ccc([C@@H](C)N(CC=C(c2ccccc2)c2ccccc2)C(=O)NC(C)(C)C)cc1 [NY0428, (R)-3-tert-butyl-1-(3,3-diphenylallyl)-1-(1-(4-methoxyphenyl)ethyl)urea] | No | 0.29 µM | 0.891 | IC50 proliferation MPanc96 (Mut) [1]: NE; IC50 proliferation MOH (Mut) [3]: NE; IC50 proliferation MiaPaCa-2 (Mut) [4]: NE
COc1ccc([C@@H](C)N(CC=C(c2ccccc2)c2ccccc2)CCCO)cc1 [NY0479, (R)-3-((3,3-diphenylallyl)(1-(4-methoxyphenyl)ethyl)amino)propan-1-ol] | No | – | 0.871 | EC50 (mGFP-K-RASG12V; [5]): 1590 nM
C[C@H](c1ccc(F)cc1)N(CC=C(c1ccccc1)c1ccccc1)CCn1cc(-c2ccc(F)cc2)nn1 [PW308, (R)-N-(2-(4-(4-fluorophenyl)-1H-1,2,3-triazol-1-yl)ethyl)-N-(1-(4-fluorophenyl)ethyl)-3,3-diphenylprop-2-en-1-amine] | No | 3.32 µM | 0.721 | –
O=S(=O)(c1ccc(F)cc1)N(CC=C(c1ccccc1)c1ccccc1)CCN1CCCC1 [PW277, N-(3,3-diphenylallyl)-4-fluoro-N-(2-(pyrrolidin-1-yl)ethyl)benzenesulfonamide] | Yes | 3.97 µM | 0.592 | –
C(CNC1(c2ccccc2)CCCCC1)=C(c1ccccc1)c1ccccc1 [NY0514, N-(3,3-diphenylallyl)-1-phenylcyclohexan-1-amine] | No | – | 0.802 | EC50 (mGFP-K-RASG12V): 1340 nM
COc1ccc([C@@H](C)N(CC=C(c2ccccc2)c2ccccc2)CCN2CCN(C(=O)OC(C)(C)C)CC2)cc1 [NY345, (R)-tert-butyl 4-(2-((3,3-diphenylallyl)(1-(4-methoxyphenyl)ethyl)amino)ethyl) piperazine-1-carboxylate] | No | 0.329 µM | 0.819 | –
CCCN1CCN(CCN(CC=C(c2ccccc2)c2ccccc2)[C@H](C)c2ccc(OC)cc2)CC1 [NY0594, (R)-N-(2-(4-propylpiperazin-1-yl)ethyl)-N-(1-(4-methoxyphenyl)ethyl)-3,3-diphenylprop-2-en-1-amine] | Yes | – | 0.75 | EC50 (mGFP-K-RASG12V; [5]): 3260 nM
O=C(c1cnc2ccccc2n1)N(CC=C(c1ccccc1)c1ccccc1)CCN1CCCC1 [PW285, N-(3,3-diphenylallyl)-N-(2-(pyrrolidin-1-yl)ethyl)quinoxaline-2-carboxamide] | Yes | 4.52 µM | 0.62 | –
COc1ccc([C@@H](C)N(CC=C(c2ccccc2)c2ccccc2)CCCC=O)cc1 [NY0445, (R)-4-((3,3-diphenylallyl)(1-(4-methoxyphenyl)ethyl)amino)butanal] | No | 2.02 µM | 0.694 | –
COc1ccc([C@@H](C)N(CC=C(c2ccccc2)c2ccccc2)CCN(C)C)cc1 [NY0435, (R)-N^1-(3,3-diphenylallyl)-N^1-(1-(4-methoxyphenyl)ethyl)-N^2,N^2-dimethylethane-1,2-diamine] | Yes | 11.2 µM | 0.658 | IC50 (mGFP-K-RASG12V; MDCK cells, listed as 12a): 11.2 µM; Emax (mGFP-K-RASG12V; MDCK cells, 48 h, listed as 12a): 0.66 ± 0.01
C(CN(CC=C(c1ccccc1)c1ccccc1)C1(c2ccccc2)CC1)=C(c1ccccc1)c1ccccc1 [NY040401, N,N-bis(3,3-diphenylallyl)-1-phenylcyclopropanamine] | No | 1.46 µM | 0.778 | –
COc1ccc([C@H](C)N(CC=C(c2ccccc2)c2ccccc2)CCN2CCN(C)CC2)cc1 [NY0454, (S)-N-(1-(4-methoxyphenyl)ethyl)-N-(2-(4-methylpiperazin-1-yl)ethyl)-3,3-diphenylprop-2-en-1-amine] | Yes | 1.24 µM | 0.827 | IC50 (mGFP-K-RASG12V; MDCK cells, listed as 15a): 1.2 µM; Emax (mGFP-K-RASG12V; MDCK cells, 48 h, listed as 15a): 0.83 and 0.83 ± 0.02; fold potency loss / decreased potency (mGFP-K-RASG12V; versus 12f (NY0244)): 12 fold
Fc1ccc(CN(CC=C(c2ccccc2)c2ccccc2)CCN2CCCC2)cc1 [PW278, N-(4-fluorobenzyl)-3,3-diphenyl-N-(2-(pyrrolidin-1-yl)ethyl)prop-2-en-1-amine] | Yes | 8.85 µM | 0.739 | –
CC1CCc2ccccc2N1CC=C(c1ccccc1)c1ccccc1 (stereo not shown) [NY304, 1-(3,3-diphenylallyl)-2-methyl-1,2,3,4-tetrahydroquinoline] | No | 2.95 µM | 0.751 | –
C[C@@H](NCCN1c2ccccc2CCc2ccccc21)c1ccccc1 [NY0553, (R)-2-(10,11-dihydro-5H-dibenzo[b,f]azepin-5-yl)-N-(1-phenylethyl)ethan-1-amine] | No | – | 0.452 | –
COc1ccc(/C(=C\CN(CCN2CCCC2)[C@H](C)c2ccc(F)cc2)c2ccc(F)cc2)cc1 [PW454, (R,E)-3-(4-fluorophenyl)-N-(1-(4-fluorophenyl)ethyl)-3-(4-methoxyphenyl)-N-(2-(pyrrolidin-1-yl)ethyl)prop-2-en-1-amine] | Yes at 10 uM | 0.319 µM | 0.771 | –
C(CN[C@@H]1C[C@H]1c1ccccc1)=C(c1ccccc1)c1ccccc1 [NY022602, (1R,2S)-N-(3,3-diphenylallyl)-2-phenylcyclopropanamine] | No | 0.16 µM | 0.637 | –
CCN(CC)CCN(CC=C(c1ccccc1)c1ccccc1)[C@H](C)c1ccc(OC)cc1 [NY0358, (R)-N^1-(3,3-diphenylallyl)-N^2,N^2-diethyl-N^1-(1-(4-methoxyphenyl)ethyl)ethane-1,2-diamine] | Yes | 1.15 µM and 1.2 µM | 0.887 | Emax (mGFP-K-RASG12V; MDCK cells, 48 h, listed as 12b): 0.89 ± 0.01
C[C@H](c1ccc(Cl)cc1)N(CC=C(c1ccccc1)c1ccccc1)CCN1CCCC1 [NY0519, (R)-N-(1-(4-chlorophenyl)ethyl)-3,3-diphenyl-N-(2-(pyrrolidin-1-yl)ethyl)prop-2-en-1-amine] | Yes | – | 0.553 | EC50 (mGFP-K-RASG12V; [5]): 4360 nM
O=C(c1cc2ccccn2n1)N(CC=C(c1ccccc1)c1ccccc1)CCN1CCCC1 [PW286, N-(3,3-diphenylallyl)-N-(2-(pyrrolidin-1-yl)ethyl)pyrazolo[1,5-a]pyridine-2-carboxamide] | No | 6.63 µM | 0.801 | –
COc1ccc([C@@H](C)N(CC=C(c2ccccc2)c2ccccc2)CCN2CCCCC2)cc1 [NY329, (R)-N-(1-(4-methoxyphenyl)ethyl)-3,3-diphenyl-N-(2-(piperidin-1-yl)ethyl)prop-2-en-1-amine] | Yes | 0.6 µM | 0.83 ± 0.02 | –
C(CN1CCCc2ccccc21)=C(c1ccccc1)c1ccccc1 [NY0237, 1-(3,3-diphenylallyl)-1,2,3,4-tetrahydroquinoline] | No | 12.2 µM | 0.79 | –
CC(=O)NNC(=O)[C@H](NCC=C(c1ccccc1)c1ccccc1)c1ccccc1 [NY0568, (R)-N′-acetyl-2-((3,3-diphenylallyl)amino)-2-phenylacetohydrazide] | No | – | 0.364 | –
